Measurements as given in patent EP4813991A1 (iLeadBMS Co., Ltd., priority 2023, dated 2025).

Columns and labels:
[1] = tested on: LoVo; test: Colorectal cancer cell proliferation inhibitory activity, LoVo; assay type: cell-based; details: Homo sapiens, 72 hours, Cell Counting Kit-8, relative IC50
Experimental: (§1) Experiments were performed using seven types of colorectal cancer cell lines to measure the cell proliferation inhibitory ability of each Example compound. DLD-1, LoVo, SW620, SW480, HCT116, HCT15, and HT29 cells were dispensed into a 96-well plate at 100 µL of cell suspension per well using RPMI1640 medium containing 10 % FBS and 1 % PS, followed by incubation in a cell incubator at 37 °C and 5 % CO2. The next day, each Example compound dissolved and diluted in DMSO across 10 concentration ranges and a DMSO control group were treated on the cells for 72 hours. After completion of the compound treatment, 10 µL of Cell Counting Kit-8 (Dojindo) reagent was added to each well of the 96-well plate, followed by incubation for 2 hours. […] were measured after inserting the 96-well plate into an Envision plate reader […]. Relative IC50 values were calculated by fitting a dose-response curve using Graphpad PRISM software.
(§2) The colorectal cancer cell proliferation inhibitory activities of the Example compounds measured by the method described above were evaluated according to the following criteria, and the results are presented in Table 19.

[2] = tested on: AsPC-1; test: Pancreatic cancer cell proliferation inhibitory activity, AsPC-1; assay type: cell-based; details: Homo sapiens, ASPC1; 72 hours, Cell Counting Kit-8, relative IC50
Experimental: Experiments were performed using three types of pancreatic cancer cell lines to measure the cell proliferation inhibitory ability of the compounds of the present invention. AsPC-1, MIA-PaCa2-Control, and Gemcitabine resistant-MIA-PaCa2 cells were dispensed into a 96-well plate at 100 uL of cell suspension per well using DMEM medium containing 10 % FBS and 1 % PS, followed by incubation in a cell incubator at 37 °C and 5 % CO2. The next day, the compound of Example 8 dissolved and diluted in DMSO across 10 concentration ranges and a DMSO control group were treated on the cells for 72 hours. After completion of the compound treatment, 10 µL of Cell Counting Kit-8 (Dojindo) reagent was added to each well of the 96-well plate, followed by incubation for 2 hours. […] were measured after inserting the 96-well plate into an Envision plate reader […]. Relative IC50 values were calculated by fitting a dose-response curve using Graphpad PRISM software.
The pancreatic cancer cell proliferation inhibitory activities of the Example compounds measured by the method described above were evaluated according to the following criteria, and the results are presented in Table 18.

[3] = tested on: NCI-H23; test: Lung cancer cell proliferation inhibitory activity, NCI-H23; assay type: cell-based; details: Homo sapiens, 72 hours, Cell Counting Kit-8, relative IC50
Experimental: (§3) Experiments were performed using three types of lung cancer cell lines to measure the cell proliferation inhibitory ability of the compounds of the present invention. NCI-H23 and NCI-H358 cells were dispensed into a 96-well plate at 100 µL of cell suspension per well using RPM11640 medium containing 10 % FBS and 1 % PS, followed by incubation in a cell incubator at 37 °C and 5 % CO2. A427 cells were dispensed into a 96-well plate at 100 µL of cell suspension per well using DMEM medium containing 10 % FBS and 1 % PS, followed by incubation in a cell incubator at 37 °C and 5 % CO2. The next day, each Example compound (such as Example 8) dissolved and diluted in DMSO across 10 concentration ranges and a DMSO control group were treated on the cells for 72 hours. After completion of the compound treatment, 10 µL of Cell Counting Kit-8 (Dojindo) reagent was added to each well of the 96-well plate, followed by incubation for 2 hours. After inserting the 96-well plate into an Envision plate reader […], luminescence signals were measured. Relative IC50 values were calculated by fitting a dose-response curve using Graphpad PRISM software.
(§4) The lung cancer cell proliferation inhibitory activities of the Example compounds measured by the method described above were evaluated according to the following criteria, and the results are presented in Table 17.

[4] = tested on: HCT116; test: Colorectal cancer cell proliferation inhibitory activity, HCT116; assay type: cell-based; details: Homo sapiens, HCT-116; 72 hours, Cell Counting Kit-8, relative IC50
Experimental: as §1, §2

[5] = tested on: NCI-H358 cells; test: Lung cancer cell proliferation inhibitory activity, NCI-H358; assay type: cell-based; details: Homo sapiens, 72 hours, Cell Counting Kit-8, relative IC50
Experimental: as §3, §4

[6] = tested on: HCC70 breast cancer cells; test: Zebrafish xenograft breast cancer model (HCC70); assay type: in vivo; details: 48 hours, compared to the vehicle, FIG. 6
Experimental: Transgenic Tg(fli1:EGFP)y1 zebrafish embryos were cultured in E3 embryo medium with 0.2 mM 1-phenyl-2-thiourea (PTU) at 28 °C for 48 hours. HCC70 breast cancer cells were cultured using RPMI-1640 medium supplemented with 10 % FBS, and AGS gastric cancer cells were cultured using F-12K medium supplemented with 10 % FBS. Each cell was collected, labeled with Dil red fluorescent dye, and then subcutaneously transplanted into 2-day-old zebrafish embryos. After selecting embryos with tumors, they were classified into experimental groups (20 embryos per group), and each Example compound dissolved and diluted in DMSO across 2 to 3 concentration ranges, a DMSO control group, or a comparative compound were added, followed by incubation at 35.5 °C for 48 hours or 72 hours. In the breast cancer model, primary tumors were collected immediately after transplantation (Day 0) and after 48 hours (Day 2), and in the gastric cancer model, primary tumors were obtained immediately after transplantation (Day 0) and after 72 hours (Day 3). Images of the collected tumors were analyzed for reduction in tumor size compared to the DMSO control group using image software, and the number of disseminated cancer cells after 3 days was manually counted through the captured images, with the results shown in FIGs. 6, 7, and 8. […]

SMILES | IC50 [1] [µM] | IC50 [2] [µM] | IC50 [3] [µM] | IC50 [4] [µM] | IC50 [5] [µM] | reduction in tumor size [6]
CN1CCN(c2cc(NCc3nc4ccc(F)c(F)c4[nH]3)c3ncc(C(F)(F)F)n3n2)CC1 [Example 8, N-((6,7-difluoro-1H-benzo[d]imidazol-2-yl)methyl)-6-(4-methylpiperazin-1-yl)-3-(trifluoromethyl)imidazo[1,2-b]pyridazin-8-amine] | ≤ 0.2 | ≤ 0.2 | ≤ 0.2 | ≤ 0.2 | ≤ 0.2 | 
N#CC1CN(c2cc(NCc3nc4cc(Cl)c(Cl)cc4[nH]3)c3ncc(C(F)(F)F)n3n2)C1 [Example 30, 1-(8-(((5,6-dichloro-1H-benzol[d]imidazol-2-yl)methyl)amino)-3-(trifluoromethyl)imidazo[1,2-b]pyridazin-6-yl)azetidine-3-carbonitrile] |  |  |  |  |  | dose-dependent reduction in tumor size
